Assay results as given in patent US10300107B2, “Compositions and methods for CaMKII inhibitors and uses thereof” (THE REGENTS OF THE UNIVERSITY OF COLORADO, priority 2007, dated 2019).
pIC50: −log10 of the molar value. Where “and” joins values, the source holds several entries; their conditions need not be identical. Equal entries are not always repeated. Where no end group is shown, it is not given here.

What was measured:
Format in all cases: biochemical
AMPK = experiment: Kinase panel for CN19o: AMPK; conditions: 5 μM
Method: (§1) Additionally, CN19o was tested for effects on a panel of other kinases (see for example FIG. 25B). This panel included other CaM kinase family members (CaMKIV, DAPK1, AMPK) and other basophilic multifunctional kinases (protein kinase A (PKA) and protein kinase C (PKC)). […] Thus, CN19o (SEQ ID NO: 24) inhibits CaMKII both with remarkable potency and high selectivity.

DAPK1 = DAPK1 (Homo sapiens, UniProt P53355); experiment: Kinase panel for CN19o: DAPK1; conditions: 5 μM
Method: as §1

CaMKI = CaMKI (Homo sapiens, UniProt Q14012); experiment: CaMKI activity / inhibition
From the text: For curve fit, the Hill coefficient was set as 1.

PKC = PKC (Homo sapiens, UniProt P17252); experiment: Kinase panel: PKC; conditions: 5 μM
Method: (§2) Kinase panels. A panel of different kinases was tested utilizing a kinase profiling service (Upstate Biotechnology).

protein kinase A (PKA) = protein kinase A (PKA) (Homo sapiens, UniProt P17612); experiment: Kinase panel for CN19o: PKA; conditions: 5 μM
Method: as §1

CaMKII = system: CaMKII
CaMKIV = CaMKIV (Homo sapiens, UniProt Q16566); experiment: Kinase panel: CaMKIV; conditions: 5 μM
Method: as §2

Sequence of CaMKI (Q14012 whole entry, species assumed): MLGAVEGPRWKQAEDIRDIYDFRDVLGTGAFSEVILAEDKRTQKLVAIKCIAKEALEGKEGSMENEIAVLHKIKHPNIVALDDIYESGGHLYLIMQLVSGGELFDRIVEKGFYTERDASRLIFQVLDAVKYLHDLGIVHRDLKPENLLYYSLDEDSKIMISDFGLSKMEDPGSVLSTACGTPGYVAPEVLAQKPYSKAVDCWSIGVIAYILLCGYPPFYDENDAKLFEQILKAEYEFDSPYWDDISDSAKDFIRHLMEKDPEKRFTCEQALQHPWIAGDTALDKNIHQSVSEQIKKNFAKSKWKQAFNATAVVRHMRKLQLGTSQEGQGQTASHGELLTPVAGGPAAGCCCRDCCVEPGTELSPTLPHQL
Sequence of DAPK1 (P53355 whole entry, species assumed): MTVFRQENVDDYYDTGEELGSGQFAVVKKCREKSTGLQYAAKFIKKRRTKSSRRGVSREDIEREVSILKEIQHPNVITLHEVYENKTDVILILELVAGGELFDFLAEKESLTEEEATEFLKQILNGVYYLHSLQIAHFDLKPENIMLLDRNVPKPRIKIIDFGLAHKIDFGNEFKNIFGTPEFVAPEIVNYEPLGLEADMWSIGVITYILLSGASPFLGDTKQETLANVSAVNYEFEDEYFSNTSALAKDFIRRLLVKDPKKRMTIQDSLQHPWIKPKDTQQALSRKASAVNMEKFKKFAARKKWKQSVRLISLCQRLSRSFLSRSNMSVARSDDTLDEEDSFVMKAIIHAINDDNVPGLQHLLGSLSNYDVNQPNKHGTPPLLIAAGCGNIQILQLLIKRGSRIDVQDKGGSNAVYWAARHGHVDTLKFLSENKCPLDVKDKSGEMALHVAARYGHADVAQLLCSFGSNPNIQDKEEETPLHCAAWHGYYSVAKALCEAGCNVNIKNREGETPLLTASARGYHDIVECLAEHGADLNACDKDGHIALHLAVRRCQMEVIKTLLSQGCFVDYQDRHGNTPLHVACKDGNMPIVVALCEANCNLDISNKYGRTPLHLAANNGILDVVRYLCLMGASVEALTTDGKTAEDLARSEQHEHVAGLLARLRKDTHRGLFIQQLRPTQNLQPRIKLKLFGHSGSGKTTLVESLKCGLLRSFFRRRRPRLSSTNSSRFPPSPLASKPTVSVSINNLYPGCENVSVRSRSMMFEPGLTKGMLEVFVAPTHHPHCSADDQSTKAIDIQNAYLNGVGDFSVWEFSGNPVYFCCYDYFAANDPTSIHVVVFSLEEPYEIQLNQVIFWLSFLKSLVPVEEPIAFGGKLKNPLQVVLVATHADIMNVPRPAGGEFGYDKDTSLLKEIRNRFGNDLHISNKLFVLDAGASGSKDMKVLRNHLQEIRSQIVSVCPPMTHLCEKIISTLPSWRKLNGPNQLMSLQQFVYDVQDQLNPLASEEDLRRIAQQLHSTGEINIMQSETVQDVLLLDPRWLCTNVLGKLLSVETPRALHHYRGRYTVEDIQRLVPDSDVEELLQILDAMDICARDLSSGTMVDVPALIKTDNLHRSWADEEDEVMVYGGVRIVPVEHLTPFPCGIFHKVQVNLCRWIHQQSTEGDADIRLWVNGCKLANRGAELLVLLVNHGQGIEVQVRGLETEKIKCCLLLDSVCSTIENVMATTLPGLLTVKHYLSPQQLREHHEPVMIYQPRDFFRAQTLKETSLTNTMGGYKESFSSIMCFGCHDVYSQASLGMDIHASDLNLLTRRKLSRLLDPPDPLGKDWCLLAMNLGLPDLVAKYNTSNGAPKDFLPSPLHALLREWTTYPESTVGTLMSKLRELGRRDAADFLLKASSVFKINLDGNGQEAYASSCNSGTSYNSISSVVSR

Question: Which results are given for KRAPKLGQIGRQKAVDIED [CN19o]?
Answer: effect on kinase activity of AMPK (AMPK): did not significantly affect; effect on kinase activity of DAPK1 (DAPK1): did not significantly affect; pIC50 (CaMKI): ~4.42; effect on kinase activity of CaMKI (CaMKI; 5 μM): did not significantly affect; selectivity for CaMKII vs CaMKI (CaMKI; ratio of IC50 values): about 50,000 fold; effect on kinase activity of PKC (PKC): did not significantly affect; effect on kinase activity of PKA (protein kinase A (PKA)): did not significantly affect; effect on CaMKII activity (CaMKII; 5 nM): blocked CaMKII activity nearly completely; effect of further mutation on potency of CaMKII inhibition (CaMKII; CN19a2v background): increased potency even further; pIC50 (CaMKII; CaMKII concentration lowered to 0.1 nM, read-out: IC50 of CaMKII inhibition): ~9.12 and 9.12 and > 9.00; effect on kinase activity of CaMKIV (CaMKIV): did not significantly affect
